Test results taken from ChEMBL document CHEMBL1201862, “PubChem BioAssay data set” (2004).
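1) Cells in 96-well plates. 2) Compound, 48 h, 5 concentrations. 3) Linear interpolation between surrounding doses. 4) Unreached endpoint = highest concentration. At the GI50, growth is halved.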 Calls of active or inactive are those of the source. Rule as the data show it: active = GI50 up to about 1.1 µM and inactive = higher.

Experiments:
Test in all cases: NCI anticancer screen, dose series, 48 h
BT-549 = test system: BT-549
HCC 2998 = test system: HCC 2998
HOP-92 = test system: HOP-92
Hs-578T = test system: Hs-578T
MDA-N = test system: MDA-N
Malme-3M = test system: Malme-3M
NCI-H460 = test system: NCI-H460
OVCAR-3 = test system: OVCAR-3
OVCAR-5 = test system: OVCAR-5
RXF 393 = test system: RXF 393
SK-OV-3 = test system: SK-OV-3
SN12C = test system: SN12C
SNB-19 = test system: SNB-19
SNB-75 = test system: SNB-75
U-251 = test system: U-251
UACC-257 = test system: UACC-257
UACC-62 = test system: UACC-62
CCRF-CEM = test system: CCRF-CEM
NCI-H226 = test system: NCI-H226

Measured: GI50

O=C(O)CSc1ccc([N+](=O)[O-])cc1[N+](=O)[O-]
inactive: BT-549 > 100 µM | HCC 2998 > 100 µM | HOP-92 > 100 µM | Hs-578T > 100 µM | MDA-N > 100 µM | Malme-3M > 100 µM | NCI-H460 > 100 µM | OVCAR-3 > 100 µM | OVCAR-5 > 100 µM | RXF 393 > 100 µM | SK-OV-3 > 100 µM | SN12C > 100 µM | SNB-19 > 100 µM | SNB-75 > 100 µM | U-251 > 100 µM | UACC-257 > 100 µM | UACC-62 > 100 µM

Cc1cccc(CNc2[nH]cnc3nncc2-3)c1
inactive: BT-549 > 100 µM | CCRF-CEM > 100 µM | HOP-92 40.5 µM | Hs-578T > 100 µM | MDA-N > 100 µM | Malme-3M > 100 µM | NCI-H226 49.5 µM | NCI-H460 > 100 µM | OVCAR-3 > 100 µM | OVCAR-5 40.4 µM | RXF 393 > 100 µM | SK-OV-3 > 100 µM | SN12C 72.8 µM | SNB-19 > 100 µM | SNB-75 53.5 µM | U-251 > 100 µM | UACC-257 76.6 µM | UACC-62 > 100 µM

Cn1c(=O)c2nc(COCc3nc4c(=O)n(C)c(=O)n(C)c4[nH]3)[nH]c2n(C)c1=O
inactive: BT-549 > 100 µM | CCRF-CEM > 100 µM | HOP-92 > 100 µM | Hs-578T > 100 µM | MDA-N > 100 µM | Malme-3M > 100 µM | NCI-H226 > 100 µM | NCI-H460 > 100 µM | OVCAR-3 > 100 µM | OVCAR-5 > 100 µM | RXF 393 > 100 µM | SK-OV-3 > 100 µM | SN12C > 100 µM | SNB-19 > 100 µM | SNB-75 > 100 µM | U-251 > 100 µM | UACC-257 > 100 µM | UACC-62 > 100 µM

O=C1NC(=O)C(CC(C(=O)C(=O)Nc2ccccc2Cl)C(=O)c2ccc3ccccc3c2)C(=O)N1 (stereo unspecified)
inactive: BT-549 > 100 µM | CCRF-CEM > 100 µM | HCC 2998 > 100 µM | HOP-92 61.9 µM | Hs-578T > 100 µM | MDA-N > 100 µM | NCI-H226 > 100 µM | NCI-H460 > 100 µM | OVCAR-3 > 100 µM | OVCAR-5 > 100 µM | RXF 393 > 100 µM | SK-OV-3 > 100 µM | SN12C > 100 µM | SNB-19 > 100 µM | SNB-75 > 100 µM | U-251 > 100 µM | UACC-257 > 100 µM | UACC-62 > 100 µM

O=c1c2cc(I)ccc2nc(S)n1Cc1ccccc1
inactive: BT-549 19.2 µM | CCRF-CEM 5.69 µM | HCC 2998 17.1 µM | HOP-92 8.75 µM | Hs-578T 16 µM | MDA-N 9.2 µM | NCI-H226 15.5 µM | NCI-H460 6.93 µM | OVCAR-3 6.65 µM | OVCAR-5 43.1 µM | RXF 393 16.6 µM | SK-OV-3 27.5 µM | SN12C 10.6 µM | SNB-19 18.9 µM | SNB-75 20.6 µM | U-251 18.4 µM | UACC-257 11.7 µM | UACC-62 19.6 µM

O=C1CC(Br)c2c(Br)sc(Br)c21 (stereo unspecified)
inactive: BT-549 19 µM | CCRF-CEM 2.51 µM | HOP-92 17.7 µM | Hs-578T 36.7 µM | MDA-N 15.5 µM | Malme-3M 19.7 µM | NCI-H226 29.8 µM | NCI-H460 17.3 µM | OVCAR-3 18.9 µM | OVCAR-5 17.9 µM | RXF 393 18.3 µM | SK-OV-3 28.8 µM | SN12C 15.6 µM | SNB-19 27.7 µM | SNB-75 23.1 µM | U-251 17.3 µM | UACC-257 15.7 µM | UACC-62 17.1 µM

Cc1cnoc1/N=C1\C=C(O)C(=O)c2ccccc21
inactive: BT-549 4.9 µM | CCRF-CEM 16.1 µM | HOP-92 29.4 µM | Hs-578T 7.6 µM | MDA-N 1.26 µM | Malme-3M 3.02 µM | NCI-H226 35.3 µM | NCI-H460 6.32 µM | OVCAR-3 5.26 µM | OVCAR-5 10.9 µM | SK-OV-3 > 100 µM | SN12C 1.77 µM | SNB-19 16.3 µM | SNB-75 10.4 µM | U-251 1.79 µM | UACC-257 16.3 µM | UACC-62 4.71 µM

Cc1cccc2c1[nH]c1[nH]c(=O)[nH]c(=O)c12
inactive: BT-549 > 100 µM | CCRF-CEM > 100 µM | HOP-92 > 100 µM | Hs-578T 53.3 µM | MDA-N > 100 µM | Malme-3M > 100 µM | NCI-H226 > 100 µM | OVCAR-3 30.7 µM | OVCAR-5 > 100 µM | RXF 393 > 100 µM | SK-OV-3 > 100 µM | SN12C > 100 µM | SNB-19 > 100 µM | SNB-75 13 µM | UACC-257 > 100 µM | UACC-62 > 100 µM

COc1cc(/C=N/NC(=O)c2c(Cl)c(Cl)c(Cl)c(Cl)c2-c2nc3cc(C(=O)c4ccccc4)ccc3[nH]2)ccc1O
inactive: BT-549 32.7 µM | CCRF-CEM 23 µM | HOP-92 76.9 µM | Hs-578T 60 µM | MDA-N 16.1 µM | Malme-3M 54.8 µM | NCI-H226 34.2 µM | OVCAR-3 40 µM | OVCAR-5 > 100 µM | RXF 393 21.6 µM | SK-OV-3 56.4 µM | SN12C 36.5 µM | SNB-19 62.1 µM | SNB-75 42.1 µM | U-251 35.4 µM | UACC-257 60.8 µM

O=c1c(C(c2cccc(C(c3c(O)oc4ccccc4c3=O)c3c(O)oc4ccccc4c3=O)c2)c2c(O)oc3ccccc3c2=O)c(O)oc2ccccc12
inactive: BT-549 27.9 µM | CCRF-CEM 32.4 µM | HCC 2998 15.6 µM | HOP-92 27.7 µM | Hs-578T 25.5 µM | MDA-N 66.4 µM | NCI-H226 44.7 µM | NCI-H460 75.2 µM | OVCAR-3 35.3 µM | OVCAR-5 > 100 µM | RXF 393 > 100 µM | SK-OV-3 18.2 µM | SN12C 22.1 µM | SNB-75 3.73 µM | U-251 26.3 µM | UACC-257 69 µM | UACC-62 29 µM

NC(=O)C1=C(c2ccccc2)c2ccccc2C1=O
inactive: BT-549 16.9 µM | CCRF-CEM 2.75 µM | HCC 2998 15.8 µM | HOP-92 17.7 µM | Hs-578T 24.8 µM | MDA-N 19.5 µM | NCI-H226 18.2 µM | NCI-H460 15.9 µM | OVCAR-3 11.8 µM | OVCAR-5 18.6 µM | RXF 393 19.7 µM | SK-OV-3 18.3 µM | SN12C 18.5 µM | SNB-19 17.7 µM | SNB-75 19.7 µM | U-251 18.3 µM | UACC-257 13.6 µM | UACC-62 17.4 µM
